“Also recorded” adds a separate entry of the source.
Key:
[1] = test system: pancreatic cancer cell line BX-PC-3; assay: MTT assay, human pancreatic cancer cells; format: cell-based; details: concentrations in the range of 10^−7-10^−5 M or higher, FIGS. 3, 18
Source text: (§1) The anti-cancer activity of some of the compounds described herein have been tested in one type of such in vitro assay, as described in the examples herein, using a microculture assay with 3-(4,5-dimethylthiazol-2-yl)-2,5-diphenyltetrazolium bromide (“MTT”). This assay has an advantage over in vivo assay in that results are obtained within a week as opposed to several months. The assay can be carried out in 96-well microtiter plates. The MTT assay is based on the production of a dark blue formazan product by dehydrogenase in the mitochondria of live tumor cells after exposure to drug for 6 days [M. C. Alley, D. A. Scudiero, A. Monks, M. L. Hursey, M. J. Czerwinski, D. L. Fine, B. J. Abbout, J. G. Mayo, R. H. Shoemaker and M. R. Boyd, Cancer Res., 48, 589, 1988]. Thus, only live cells are stained and can be measured at 595 nm. Anti-cancer activity can be reported as percent of the tumor cell growth in the presence of compound at a defined dose compared to control/vehicle treated tumor cells. The results of some such screening assays are given in Examples 162a and 162b, and in FIGS. 2, 3, and 15-18.
(§2) The following human cancer cell lines were used to detect anti-cancer activity in the compounds of the invention.
The pancreatic cancer cell line BX-PC-3 was used to detect anti-pancreatic cancer activity.
(§3) Cell lines were purchased from American Type Culture Collection (ATCC).
(§4) The cancer cell cultures were grown as recommended by the ATTC manuals. A549 cells and BX-PC-3 were grown in DME Dulbecco's modified Eagle's medium containing 4500 mg/L glucose; 4 mM L-glutamine; 10 U/ml Pen-G; 10 mcg/ml […] and 10% fetal calf serum (FCS). PC-3 and MDA-MB468 cells were grown in RPMI medium 1640 containing 2 mM L-glutamine; 10 U/ml Pen-G; 10 mcg/ml Streptomycin and 10% FCS. Cells were kept at 6% CO2 and 37° C. Cells were seeded on day zero in 96-well format tissue culture plates at suitable densities the day before starting treatment, in the media indicated above.
(§5) On day one, the compounds of the invention were added to the culture media of growing cells, containing 10% FCS. The cell media contained the compounds of the invention at one of six concentrations: […], 5×10^−8, 1×10^−7, 5×10^−7, 1×10^−6, and 1×10^−5M. 0.1% DMSO was used as vehicle control, and never exceeded 0.1% final concentration. On day four the media was removed and replaced with fresh media containing the compounds of the invention and FCS.
(§6) The assay is based on the cleavage of the yellow tetrazolium salt MTT to purple formazan crystals by dehydrogenase activity in active mitochondria. This conversion only occurs in living cells with intact/functional mitochondria.
(§7) On day five 10 μl of 5 mg/ml MTT dye are added to each well containing a cell culture. Cells are incubated for additional 4 hours at 6% CO2 and 37° C. Reaction is then stopped by adding 100 μl/well of a solubilization solution consisting of 10% Sodium Dodecyl Sulfate (SDS) and 10 mM HCl On day 6 the formazan crystals formed are solubilized and the resulting colored solution is quantified using a scanning multiwell spectrophotometer at a wavelength of 595 nm.

[2] = test system: breast cancer cell line MDA-MB468; assay: MTT assay, human breast cancer cells; format: cell-based; details: concentrations in the range of 10^−7-10^−5 M or higher, FIGS. 2, 17
Source text: as §1, §2
The breast cancer cell line MDA-MB468 served to detect anti-breast cancer activity.
as §3, §4, §5, §6, §7

[3] = test system: non-small-cell lung cancer cell line A549; assay: MTT assay, human non-small-cell lung cancer cells; format: cell-based; details: concentrations in the range of 10^−7-10^−5 M or higher, FIGS. 3, 15
Source text: as §1, §2
The non-small-cell lung cancer cell line A549 was used to detect anti-lung cancer activity
as §3, §4, §5, §6, §7

[4] = test system: prostate cancer cell line PC-3; assay: MTT assay, human prostate cancer cells; format: cell-based; details: concentrations in the range of 10^−7-10^−5 M or higher, FIGS. 2, 16
Source text: as §1, §2
The prostate cancer cell line PC-3 was used to detect […]
as §3, §4, §5, §6, §7

tumor cells (PC3) = assay: Solid prostate cancer tumors in athymic nude mice, intraperitoneal treatment; format: in vivo; details: PC3 s.c. in athymic nude mice; i.p. every other day; compound 43 20mg/kg, compound 81 20mg/kg and 60mg/kg; FIGS. 20, 21
Protocol: Four to six week-old male athymic nude mice (Harlan) were housed under sterile conditions in a fixed 12-12-hr artificial light-dark cycle, and maintained on a standard rodent diet provided ad libitum. Animals were allowed two days to acclimate in this experimental environment prior to the initiation of the study.
Groups of animals were injected subcutaneously with tumor cells (H460 or PC3). Prior to the injection, the sterile tumor cells were at a logarithmic growth phase and were washed twice with PBS, counted and resuspended in sterile saline at 5-50 million cells per ml. As soon as solid tumors were discernible, the animals were sorted into treatment groups with equal average tumor volume. Animals were treated every other day intraperitoneally with a final volume of 5 ml/kg. Tumor volume was measured once a week for the duration of the study.
Experiment I: Treatment of solid prostate cancer tumors
Study 1—Treatment groups(n=6/group):

SMILES	anticancer cell activity / killing of pancreatic cancer cells [1]	anticancer cell activity / killing of breast cancer cells [2]	melting point	anticancer cell activity / killing of non-small-cell lung cancer cells [3]	anticancer cell activity / killing of prostate cancer cells [4]	growth of solid human prostate cancer tumors (tumor cells (PC3))
O=C1N=C(N2CCOCC2)S/C1=C\c1cccc(-c2cc(F)c(O)c(C34CC5CC(CC(C5)C3)C4)c2)c1 [Compound 1, 5-[3-(3-Adamantan-1-yl-4-hydroxy-5-fluoro-phenyl)benzylidene]-2-morpholin-4-yl-thiazol-4-one]	kill significant percentages of the cells; also recorded: strong anticancer all activity	kill significant percentages of the cells; also recorded: strong anticancer cell activity	293 to 295 °C	kill significant percentages of the cells; also recorded: strong anticancer all activity	kill significant percentages of the cells; also recorded: strong anticancer cell activity	–
O=C1N=C(N2CCOCC2)SC1Cc1cccc(-c2cc(F)c(O)c(C34CC5CC(CC(C5)C3)C4)c2)c1 (stereo not drawn) [Compound 43, 5-[3-(3-Adamantan-1-yl-4-hydroxy-5-fluoro-phenyl)benzyl]-2-morpholin-4-yl-thiazol-4-one]	kill significant percentages of the cells; also recorded: strong anticancer all activity	kill significant percentages of the cells; also recorded: strong anticancer cell activity	227 to 229 °C	kill significant percentages of the cells; also recorded: strong anticancer all activity	kill significant percentages of the cells; also recorded: strong anticancer cell activity	significantly retarded the growth; also recorded: significantly slowed the growth
COc1cc(-c2ccc(O)c(C34CC5CC(CC(C5)C3)C4)c2)cc(/C=C2\SC(N3CCOCC3)=NC2=O)c1O [Compound 84, 5-[3-(3-Adamantan-1-yl-4-hydroxy-phenyl)-5-methoxy-6-hydroxy-benzylidene]-2-morpholin-4-yl-thiazol-4-one]	kill significant percentages of the cells	kill significant percentages of the cells	310 to 312 °C	kill significant percentages of the cells	kill significant percentages of the cells	–
COc1ccc(-c2ccc(O)c(C34CC5CC(CC(C5)C3)C4)c2)cc1/C=C1\SC(N2CCOCC2)=NC1=O [Compound 86, 5-[3-(3-Adamantan-1-yl-4-hydroxy-phenyl)-6-methoxy-benzylidene]-2-morpholin-4-yl-thiazol-4-one]	–	–	355 to 360 °C	–	–	–
O=C1N=C(N2CCOCC2)S/C1=C\c1cc(-c2ccc(O)c(C34CC5CC(CC(C5)C3)C4)c2)c(O)cc1O [Compound 104, 5-[3-(3-Adamantan-1-yl-4-hydroxy-phenyl)-4,6-dihydroxy-benzylidene]-2-morpholin-4yl-thiazol-4-one]	–	–	306 to 310 °C	–	–	–
O=C1N=C(N2CCC2)S/C1=C\c1cccc(-c2cc(F)c(O)c(C34CC5CC(CC(C5)C3)C4)c2)c1 [Compound 108]	–	–	154 to 157 °C	–	–	–
O=C1N=C(N2CCOCC2)SC1Cc1cccc(-c2ccc(O)c(C34CC5CC(CC(C5)C3)C4)c2)c1 (stereo not drawn) [Compound 135, 5-(3′-Adamantan-1-yl-4′-hydroxy-biphenyl-3-ylmethyl)-2-morpholin-4-yl-thiazol-4-one]	kill significant percentages of the cells	kill significant percentages of the cells	–	kill significant percentages of the cells	kill significant percentages of the cells	–
CCC(C)(C)c1cc(-c2cccc(CC3SC(N4CCOCC4)=NC3=O)c2)ccc1O (stereo not drawn) [Compound 151, 5-[3′-(1,1-Dimethyl-propyl)-4′-hydroxy-biphenyl-3-ylmethyl]-2-morpholin-4-yl-thiazol-4-one]	kill significant percentages of the cells	kill significant percentages of the cells	74 to 77 °C	kill significant percentages of the cells	kill significant percentages of the cells	–
CCC(C)(C)c1cc(-c2ccc(F)c(/C=C3\SC(N4CCOCC4)=NC3=O)c2)ccc1O [Compound 152, 5-[3′-(1,1-Dimethyl-propyl)-4-fluoro-4′-hydroxy-biphenyl-3-ylmethylene]-2-morpholin-4-yl-thiazol-4one]	kill significant percentages of the cells	kill significant percentages of the cells	–	kill significant percentages of the cells	kill significant percentages of the cells	–
CCC(C)(C)c1cc(-c2cccc(CC3SC(N4CCOCC4)=NC3=O)n2)ccc1O (stereo not drawn) [Compound 155, 5-{6-[3-(1,1-Dimethyl-propyl)-4-hydroxy-phenyl]-pyridin-2ylmethyl}--2-morpholin-4-yl-thiazol-4-one]	kill significant percentages of the cells	kill significant percentages of the cells	–	kill significant percentages of the cells	kill significant percentages of the cells	–
